From PMC10283505, “CVM-1118 (foslinanib), a 2-phenyl-4-quinolone derivative, promotes apoptosis and inhibits vasculogenic mimicry via targeting TRAP1” (Pathology and Oncology Research, 2023)
pKd: −log10 of the molar value.

Experiments:
U251 = assay: NCI 60 cytotoxicity screening; assay type: cell-based; details: Homo sapiens, U-251; U251, CNS
M14 = assay: NCI 60 cytotoxicity screening; assay type: cell-based; details: Homo sapiens; M14, Melanoma
Renin receptor (ATP6IP2) = Renin receptor (ATP6IP2) (Homo sapiens, UniProt O75787); assay: Surface plasmon resonance (Biacore); assay type: binding; details: ATP6IP2, SPR
Sequence of Renin receptor (ATP6IP2) (O75787 17-350): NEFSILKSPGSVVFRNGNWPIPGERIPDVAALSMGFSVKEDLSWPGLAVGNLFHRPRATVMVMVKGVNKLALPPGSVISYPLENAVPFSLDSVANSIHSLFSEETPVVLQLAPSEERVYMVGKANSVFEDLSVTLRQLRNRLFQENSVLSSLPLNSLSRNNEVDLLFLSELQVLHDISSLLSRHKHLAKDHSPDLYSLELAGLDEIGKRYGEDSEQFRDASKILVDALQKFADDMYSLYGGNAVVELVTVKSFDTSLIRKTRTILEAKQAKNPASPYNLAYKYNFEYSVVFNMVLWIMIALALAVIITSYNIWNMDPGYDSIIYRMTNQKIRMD

HCC-2998 = assay: NCI 60 cytotoxicity screening; assay type: cell-based; details: Homo sapiens; HCC-2998, Colon
COLO 205 = assay: NCI 60 cytotoxicity screening; assay type: cell-based; details: Homo sapiens; COLO 205, Colon
HL-60(TB) = assay: NCI 60 cytotoxicity screening; assay type: cell-based; details: Homo sapiens, Leukemia
HOP-62 = assay: NCI 60 cytotoxicity screening; assay type: cell-based; details: Homo sapiens; HOP-62, NSCLC
RXF 393 = assay: NCI 60 cytotoxicity screening; assay type: cell-based; details: Homo sapiens; RXF 393, Renal
A498 = assay: NCI 60 cytotoxicity screening; assay type: cell-based; details: Homo sapiens; A498, Renal
[1] = test system: human melanoma (C8161) cells; assay: In vitro VM assay (3D Matrigel tubular network); assay type: cell-based; details: 24 h
Description: Aggressive human melanoma (C8161) cells were seeded at 1.0 × 10^5 onto 3D polymerized LDEV-free Matrigel (75 μL; 14 mg/ml; Corning Cat. No. 356232) for VM analysis in 12-well dishes containing no drug or various concentrations of CVM-1118. Matrigel-coated dishes were photographed for tubular network formation after 24 h.

Nodal [2] = assay: qPCR analysis of Nodal expression; assay type: cell-based, human; details: C8161, 10 nM, 8–72 h
Description: For the qPCR analysis of Nodal and Notch expression, total RNA was isolated from cells using the PerfectPure RNA Cell Isolation kit (5Prime) and then reverse-transcribed using 1 μg RNA, RT master mix cocktail and MMLV reverse transcriptase. qPCR was performed on a 7500 Real-Time PCR System (Life Technologies) using manufacturer recommended protocol. TaqMan gene expression human primer/probe sets (Applied Biosystems) utilized were Nodal (Hs00250630_s1) and Notch4 (Hs00270200_m1). Target gene expression was normalized to appropriate house-keeping genes (e.g., RPLP0 or GAPDH). Data was analyzed using Life Technologies Sequence Detection Software.

Nodal [3] = assay: Western blot of Nodal (ProNodal) protein; assay type: cell-based, human; details: C8161, 10 nM, 24 h, corrected to β-actin
Description: Cells at 80% confluence were rinsed with PBS, harvested by scrapping into a modified RIPA buffer plus protease inhibitor cocktail using 100 μL buffer per 1 × 10^6 cells. After sonication and centrifugation, the protein concentrations in the supernatants were determined using a BCA assay (Thermo Fisher Scientific). […] Nodal was detected using a mouse monoclonal anti-Nodal antibody (sc-373910; Santa Cruz; 1 μg/ml in 20 mM Tris/150 mM NaCl/0.1% [w/v] Tween 20, pH 7.4 [TBST] plus 5% BSA) followed by an anti-mouse plus horseradish peroxidase (HRP) secondary antibody (NXA931; GE Healthcare; 1 μg/ml in TBST plus 5% BSA) and enhanced chemiluminescence (ECL; GE Healthcare). Smad2 was detected using a rabbit polyclonal anti-Smad2/3 antibody (07-408; Millipore; 1 μg/ml in TBST plus 5% BSA) followed by an anti-rabbit plus HRP secondary antibody (NA934V; GE Healthcare; 1 μg/ml in TBST plus 5% BSA) and ECL. […] To assess relative changes in protein expression, the exposed films were digitized using a ChemiDoc XRS imager (Bio-Rad Laboratories) and the relative amount of protein determined against the untreated control cells normalized to a value of 1.0 using the imager’s Quantity One software package (Bio-Rad Laboratories) and corrected for loading of protein into each lane against the β-actin protein measured in the control lane.

Row | Structure (SMILES) | GI50 (U251) [nM] | GI50 (M14) [nM] | Dissociation (kd) (Renin receptor (ATP6IP2)) [s⁻¹] | kon (Renin receptor (ATP6IP2); read-out: Association (ka)) [M⁻¹ s⁻¹] | pKd (Renin receptor (ATP6IP2); read-out: KD (kd/ka)) | GI50 (HCC-2998) [nM] | GI50 (COLO 205) [nM] | GI50 (HL-60(TB)) [nM] | GI50 (HOP-62) [nM] | GI50 (RXF 393) [nM] | GI50 (A498) [nM] | VM (in vitro) tubular network formation ([1]; C8161, 5 nM) | VM (in vitro) tubular network formation ([1]; C8161, 10 nM) | VM (in vitro) tubular network formation ([1]; C8161, 50 nM) | expression of Nodal (mRNA) (Nodal [2]) | reduction of Nodal protein levels (Nodal [3]) [%]
1 | COc1ccc2[nH]c(-c3cccc(F)c3)cc(=O)c2c1O [CVM-1125] | 42.9 | 18.9 | 0.021 | 122000 | 6.76 | 32.1 | 25.2 | 22.2 | 49.6 | 17.5 | 24.8 |  |  |  |  | 
2 | COc1ccc2[nH]c(-c3cccc(F)c3)cc(=O)c2c1OP(=O)(O)O [CVM-1118] |  |  |  |  |  |  |  |  |  |  |  | disrupted | significantly inhibited | significantly inhibited | decreased | 63
